Reference: patent US20220000911A1, “COMBINATION OF GOLD COMPLEXES WITH OLAPARIB OR OTHER PARP1/2 INHIBITORS FOR USE IN THE TREATMENT OF CANCER RESISTANT TO SAID PARP1/2 INHIBITORS” (Varsity Pharmaceuticals Limited, priority 2020, published 2022)

Experiments:
Type in all cases: cell-based
[1] = test system: wildtype A2780 ovarian cancer cells; assay: CellTiter Glo proliferation inhibition, wild-type A2780 cells
Method: The A2780 cell line is an ovarian cancer cell line that was established from an ovarian endometroid adenocarcinoma tumour. […] It is commonly used as a model to observe the effects of, and test the potency of various chemicals, methods of delivery and treatments for ovarian cancer. […] The cells were diluted with culture medium and 40 μL of cell suspension (1000 cells/well) was added into each well of a 384-well cell culture plate. The plate was covered with a lid and left at room temperature without shaking for 30 minutes. The plate was then transferred to an incubator at 37° C. and 5% CO2 and left overnight. Test compounds were dissolved at a concentration of 30 mM in DMSO to create a stock solution. 45 μL of the stock solution was transferred to a 384 pp-plate. […] The plate was then spun at room temperature at 1,000 RPM for 1 minute. 40 nL of the diluted compound was then transferred from the compound source plate into the cell plate. The cell plate was then covered with a lid and placed in an incubator at 37° C. and 5% CO2 and left for 120 hours. 72 hours after treatment with the compound detection was conducted as discussed below. CellTiter Glo® reagents were thawed and equilibrated to room temperature. The cell plate was then removed from the incubator and equilibrated at room temperature for 15 minutes. 30 μL of the CellTiter Glo® reagents were then added into each well (at 1:1 to culture medium). The contents was mixed for 2 minutes on an orbital shaker to induce cell lysis and then the plates were allowed to incubate at room temperature for 30 minutes. Luminescence was then measured on an Envision reader (Perkin Elmer). The inhibition activity was calculated using the following formula: […]

[2] = test system: olaparib resistant A2780 ovarian cancer cells; assay: CellTiter Glo proliferation inhibition, olaparib resistant A2780 cells, single agents
Method: A2780 ovarian cancer cells (wild-type “WT”) were cultured in RPMI 1640 Medium with 10% Fetal Bovine Serum (FBS).
To obtain cells resistant to olaparib, the cells were cultured in cell culture medium (RPMI 1640 Medium with 10% FBS) supplemented with 20 μM olaparib for one month in order to generate A2780 cells resistant to olaparib (“R”). After a month the cells were continuously cultured in the cell culture medium (RPMI 1640 Medium with 10% FBS) supplemented with 10 μM olaparib prior to use and for up to two months to maintain the resistance.
(§1) The cells were harvested from a flask into cell culture medium (RPMI 1640 Medium with 10% FBS) and then counted. The cells were diluted with culture medium and 40 μL of cell suspension (1000 cells/well) was added into each well of a 384-well cell culture plate. The plate was covered with a lid and left at room temperature without shaking for 30 minutes. The plate was then transferred to an incubator at 37° C. and 5% CO2 and left overnight.
Test compounds were dissolved at a concentration of 30 mM in DMSO to create a stock solution. 45 μL of the stock solution was transferred to a 384 pp-plate. […] The plate was then spun at room temperature at 1,000 RPM for 1 minute. 40 nL of the diluted compound was then transferred from the compound source plate into the cell plate. The cell plate was then covered with a lid and placed in an incubator at 37° C. and 5% CO2 and left for 120 hours. 72 hours after treatment with the compound detection was conducted as discussed below.
(§2) CellTiter Glo® reagents were thawed and equilibrated to room temperature. The cell plate was then removed from the incubator and equilibrated at room temperature for 15 minutes. 30 μL of the CellTiter Glo® reagents were then added into each well (at 1:1 to culture medium). The contents was mixed for 2 minutes on an orbital shaker to induce cell lysis and then the plates were allowed to incubate at room temperature for 30 minutes. Luminescence was then measured on an Envision reader (Perkin Elmer).
The inhibition activity was calculated using the following formula:
(§3) Inhibition (%)=100×(Lumvehicle−Lumsample)/(Lumvehicle−Lumblank),
where Lumvehicle is the luminescence of cells treated with 0.1% DMSO and Lumblank is cells in the culture medium.
The IC50 was calculated by fitting the curve using Xlfit (v5.3.1.3), equation 201: […]

[3] = test system: olaparib resistant HCC1937 triple negative breast cancer cells; assay: Proliferation inhibition of olaparib resistant HCC1937 cells, single agents
Method: as §1
Test compounds were dissolved at a concentration of 30 mM in DMSO to create a stock solution. 45 μL of the stock solution was transferred to a 384 pp-plate. A 3-fold, 10-point dilution was performed by transferring 15 μL of the compound solution into 30 μL DMSO by using TECAN (EVO200) liquid handler. The plate was then spun at room temperature at 1,000 RPM for 1 minute. 40 nL of the diluted compound was then transferred from the compound source plate into the cell plate. The cell plate was then covered with a lid and placed in an incubator at 37° C. and 5% CO2 and left for 120 hours. 72 hours after treatment with the compound detection was conducted as discussed below.
as §2, §3
The methods were as described in examples 1 and 2, except the HCC1937 cell line was used.
The HCC1937 cell line was established from a primary breast carcinoma from a patient with a germ-line BRCA1 mutation. It is an example of a triple-negative breast cancer (TNBC) cell line. Breast cancer patients routinely have the expression of estrogen receptor (ER), progesterone receptor (PR), and amplification of HER-2/Neu evaluated. […] The latter group is referred to as triple-negative breast cancer based on the lack of these three molecular markers. TNBC represents approximately 10-15% of all breast cancers and patients with TNBC have a poor outcome compared to the other subtypes of breast cancer.

[4] = concentration range 0.06 nM to 30,000 nM

O=C(c1cc(Cc2n[nH]c(=O)c3ccccc23)ccc1F)N1CCN(C(=O)C2CC2)CC1 [Olaparib, olaparib]
IC50 ([1]; Homo sapiens, A2780): 3.89 µM | inhibition at 0.00152 µM ([1]; Homo sapiens, wildtype A2780, test conc. 1.52 nM, read-out: Mean Inhibition (n = 3)): 0.36% | inhibition at 0.00457 µM ([1]; Homo sapiens, wildtype A2780, test conc. 4.57 nM, read-out: Mean Inhibition (n = 3)): 1.77% | inhibition at 0.01372 µM ([1]; Homo sapiens, wildtype A2780, test conc. 13.72 nM, read-out: Mean Inhibition (n = 3)): 2.98% | inhibition at 0.04115 µM ([1]; Homo sapiens, wildtype A2780, test conc. 41.15 nM, read-out: Mean Inhibition (n = 3)): 5% | inhibition at 0.12346 µM ([1]; Homo sapiens, wildtype A2780, test conc. 123.46 nM, read-out: Mean Inhibition (n = 3)): 12.5% | inhibition at 0.37037 µM ([1]; Homo sapiens, wildtype A2780, test conc. 370.37 nM, read-out: Mean Inhibition (n = 3)): 11.9% | inhibition at 10 µM ([1]; Homo sapiens, wildtype A2780, test conc. 10,000 nM, read-out: Mean Inhibition (n = 3)): 62.7% | inhibition at 30 µM ([1]; Homo sapiens, wildtype A2780, test conc. 30,000 nM, read-out: Mean Inhibition (n = 3)): 70.8% | Maximum inhibition observed in wild-type A2780 cells [1, 4]: 72% | Mean Inhibition (n = 3) ([1]; wildtype A2780, test conc. 1,111.11 nM): 24.63% | Mean Inhibition (n = 3) ([1]; wildtype A2780, test conc. 3,333.33 nM): 39.88% | IC50 ([2]; Homo sapiens, A2780): > 30 µM | inhibition at 0.00152 µM ([2]; Homo sapiens, olaparib resistant A2780, test conc. 1.52 nM, read-out: Mean Inhibition (n = 3)): 1.01% | inhibition at 0.00457 µM ([2]; Homo sapiens, olaparib resistant A2780, test conc. 4.57 nM, read-out: Mean Inhibition (n = 3)): 2.74% | inhibition at 0.01372 µM ([2]; Homo sapiens, olaparib resistant A2780, test conc. 13.72 nM, read-out: Mean Inhibition (n = 3)): 1.78% | inhibition at 0.04115 µM ([2]; Homo sapiens, olaparib resistant A2780, test conc. 41.15 nM, read-out: Mean Inhibition (n = 3)): 1.43% | inhibition at 0.12346 µM ([2]; Homo sapiens, olaparib resistant A2780, test conc. 123.46 nM, read-out: Mean Inhibition (n = 3)): 5.53% | inhibition at 0.37037 µM ([2]; Homo sapiens, olaparib resistant A2780, test conc. 370.37 nM, read-out: Mean Inhibition (n = 3)): 5.11% | inhibition at 10 µM ([2]; Homo sapiens, olaparib resistant A2780, test conc. 10,000 nM, read-out: Mean Inhibition (n = 3)): 9.9% | inhibition at 30 µM ([2]; Homo sapiens, olaparib resistant A2780, test conc. 30,000 nM, read-out: Mean Inhibition (n = 3)): 16.2% | Maximum inhibition observed in olaparib resistant A2780 cells [2, 4]: 23% | Mean Inhibition (n = 3) ([2]; olaparib resistant A2780, test conc. 1,111.11 nM): 2.24% | Mean Inhibition (n = 3) ([2]; olaparib resistant A2780, test conc. 3,333.33 nM): 6.97% | inhibition at 0.00152 µM ([3]; test conc. 1.52 nM, read-out: Mean Inhibition (n = 3)): -6.55% | inhibition at 0.00457 µM ([3]; test conc. 4.57 nM, read-out: Mean Inhibition (n = 3)): -1.82% | inhibition at 0.01372 µM ([3]; test conc. 13.72 nM, read-out: Mean Inhibition (n = 3)): -3.47% | inhibition at 0.04115 µM ([3]; test conc. 41.15 nM, read-out: Mean Inhibition (n = 3)): -0.93% | inhibition at 0.12346 µM ([3]; test conc. 123.46 nM, read-out: Mean Inhibition (n = 3)): 1.32% | inhibition at 0.37037 µM ([3]; test conc. 370.37 nM, read-out: Mean Inhibition (n = 3)): 4.41% | Mean Inhibition (n = 3) ([3]; test conc. 1,111.11 nM): 3.09% | Mean Inhibition (n = 3) ([3]; test conc. 3,333.33 nM): 4.90% | inhibition at 10 µM ([3]; test conc. 10,000 nM, read-out: Mean Inhibition (n = 3)): 17% | inhibition at 30 µM ([3]; test conc. 30,000 nM, read-out: Mean Inhibition (n = 3)): 11.8%
